What follows are compounds tested against T1, DPP-IV (Homo sapiens, UniProt P27487) (assay: Assay for determining DP-IV inhibition (fluorometric, Gly-Pro-AMC substrate)). Conditions: Inhibition of DPP-IV, K(i) calculated from IC(50) with IC(50)=K(i)(1+[S]/Km), pH 8.0.
T1 construct: purchased R&D Systems GmbH, Germany
Format: biochemical
Method: The inhibitory activity of compounds against DPP-IV can be determined by in vitro assay systems, which are themselves well established in the art. The assay results given in Table 5 were obtained according to the following method, employing a modified version of the assay described by Leiting et al., in an article entitled “Catalytic properties and inhibition of proline-specific dipeptidyl peptidases II, IV and VII” in Biochem. J. Vol. 371, pages 525-532 (2003):
DPP-IV activity was determined fluorometrically with Gly-Pro-AMC (where AMC stands for 7-amido-4-methylcoumarin, Bachem AG, Switzerland) as substrate. The reaction mixture contained 10 μl of 1 ng/μl DPP-IV (R&D Systems GmbH, Germany) and 80 μl of 25 mM Tris/HCl buffer, pH 8.0. Compounds were supplied as DMSO stock solutions and diluted in assay buffer to a maximal DMSO concentration of 1% in the assay. Prior to start of the reaction, the mixture was incubated for 30 min at room temperature. The reaction was started by addition of 10 μl of 100 μM substrate solution.
The fluorescence intensity was measured at excitation and emission wavelengths of 355 and 460 nm, respectively, in a FluoStar Galaxy Multiwell Plate (BMG Labtech, Germany). Fluorescence was determined 3 and 4 minutes after start of reaction and increase in fluorescence was used for determination of enzymatic activity. IC(50) values of tested compounds were determined via plotting enzymatic activity versus concentration of test compound and determining the concentration of test compound which yields a 50% inhibition of enzymatic activity.
K(i) values were calculated using the Michaelis-Menten equation for competitive inhibition: IC(50)=K(i)(1+[S]/Km)

T1 sequence (P27487 whole entry): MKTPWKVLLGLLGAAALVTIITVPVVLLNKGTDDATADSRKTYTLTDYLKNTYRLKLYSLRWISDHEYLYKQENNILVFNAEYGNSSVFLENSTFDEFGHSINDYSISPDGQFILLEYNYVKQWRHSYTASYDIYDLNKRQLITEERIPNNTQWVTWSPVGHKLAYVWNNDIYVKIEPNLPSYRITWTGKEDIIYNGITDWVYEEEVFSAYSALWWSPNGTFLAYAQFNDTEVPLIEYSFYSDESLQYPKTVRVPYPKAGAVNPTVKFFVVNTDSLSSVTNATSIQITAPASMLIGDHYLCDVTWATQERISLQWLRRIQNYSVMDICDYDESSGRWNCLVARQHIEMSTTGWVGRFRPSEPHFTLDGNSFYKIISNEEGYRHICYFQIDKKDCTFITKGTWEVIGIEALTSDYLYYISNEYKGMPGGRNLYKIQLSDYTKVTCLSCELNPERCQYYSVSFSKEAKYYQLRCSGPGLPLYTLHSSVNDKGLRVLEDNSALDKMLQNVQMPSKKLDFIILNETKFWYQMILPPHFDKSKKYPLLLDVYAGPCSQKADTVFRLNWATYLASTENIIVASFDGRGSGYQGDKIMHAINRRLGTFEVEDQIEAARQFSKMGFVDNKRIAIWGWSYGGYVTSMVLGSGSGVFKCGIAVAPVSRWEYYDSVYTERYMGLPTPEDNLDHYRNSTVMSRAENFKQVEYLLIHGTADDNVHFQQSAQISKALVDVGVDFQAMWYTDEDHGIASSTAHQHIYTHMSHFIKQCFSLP

| Ki [nM] | Compound |
| --- | --- |
| < 6 | N#C[C@@H]1CCCN1C(=O)[C@@H](N)CN1CC2C[C@H]1C(=O)N2Cc1cccc(C(N)=O)c1 [Example 60] |
| < 6 | N#C[C@@H]1CCCN1C(=O)[C@@H](N)CN1CC2C[C@H]1C(=O)N2Cc1ccc(C(N)=O)cc1 [Example 61] |
| < 6 | CC(C)(c1ccc(F)cc1)N1C(=O)[C@@H]2CC1CN2C[C@H](N)C(=O)N1[C@H](C#N)C[C@@H]2C[C@@H]21 [Example 62] |
| < 6 | N#C[C@@H]1CCCN1C(=O)[C@@H]1C[C@H](N2C[C@@H]3C[C@H]2C(=O)N3Cc2cccc(F)c2)CN1 [Example 63] |
| 6 to 50 | N#C[C@@H]1CCCN1C(=O)[C@@H](N)CN1C(=O)[C@@H]2C[C@H]1CN2S(=O)(=O)c1cccs1 [Example 66] |
| < 6 | N#C[C@@H]1CCCN1C(=O)[C@@H](N)CN1C(=O)[C@@H]2C[C@H]1CN2S(=O)(=O)c1ccsc1 [Example 67] |
| 6 to 50 | COC(=O)c1sccc1S(=O)(=O)N1C[C@@H]2C[C@H]1C(=O)N2C[C@H](N)C(=O)N1CCC[C@H]1C#N [Example 68] |
| 6 to 50 | N#C[C@@H]1CCCN1C(=O)[C@@H](N)CN1C(=O)[C@@H]2C[C@H]1CN2C(=O)OCC1c2ccccc2-c2ccccc21 [Example 73] |
| 51 to 500 | Cc1ccc(S(=O)(=O)NC(=O)N2C[C@@H]3C[C@H]2C(=O)N3C[C@H](N)C(=O)N2CCC[C@H]2C#N)cc1 [Example 74] |
| 51 to 500 | CC(C)(C)NC(=O)N1C[C@@H]2C[C@H]1C(=O)N2C[C@H](N)C(=O)N1CCC[C@H]1C#N [Example 75] |
| < 6 | N#C[C@@H]1CCCN1C(=O)[C@@H](N)CN1C[C@@H]2C[C@H]1CN2S(=O)(=O)c1cccc(F)c1 [Example 77] |

Continued, compound first:

| Compound | Ki [nM] |
| --- | --- |
| CC(C)(c1ccc(F)cc1)N1C(=O)[C@@H]2CC1CN2C[C@H](N)C(=O)N1CCC[C@H]1C#N [Example 59] | < 6 |
| N#C[C@@H]1C[C@@H]2C[C@@H]2N1C(=O)[C@@H](N)CN1C[C@@H]2C[C@H]1C(=O)N2Cc1cccc(F)c1 [Example 64] | < 6 |
| N#C[C@@H]1CCCN1C(=O)[C@@H](N)CN1C(=O)[C@@H]2C[C@H]1CN2S(=O)(=O)c1cccc(F)c1 [Example 65] | 6 to 50 |
| N#C[C@@H]1CCCN1C(=O)[C@@H](N)CN1C(=O)[C@@H]2C[C@H]1CN2C(=O)c1cccs1 [Example 69] | 6 to 50 |
| N#C[C@@H]1CCCN1C(=O)[C@@H](N)CN1C(=O)[C@@H]2C[C@H]1CN2C(=O)Cc1cccs1 [Example 70] | 6 to 50 |
| N#C[C@@H]1CCCN1C(=O)[C@@H](N)CN1C(=O)[C@@H]2C[C@H]1CN2C(=O)c1cnccn1 [Example 71] | 6 to 50 |
| N#C[C@@H]1CCCN1C(=O)[C@@H](N)CN1C(=O)[C@@H]2C[C@H]1CN2C(=O)CC1c2ccccc2C=Cc2ccccc21 [Example 72] | < 6 |
| N#C[C@@H]1CCCN1C(=O)[C@@H](N)CN1C[C@@H]2C[C@H]1CN2C(=O)Cc1cccs1 [Example 76] | 6 to 50 |
| N#C[C@@H]1CCCN1C(=O)[C@@H](N)CN1C[C@@H]2C[C@H]1CN2c1cccc(F)c1 [Example 78] | 6 to 50 |

Source: patent US7553861B2, “Dipeptidyl peptidase-IV inhibitors” (Alantos Pharmaceuticals Holding, Inc., priority 2005, dated 2009)
